From article PMC7993375, “Discovery of novel quinoline-based analogues of combretastatin A-4 as tubulin polymerisation inhibitors with apoptosis inducing activity and potent anticancer effect” (Journal of Enzyme Inhibition and Medicinal Chemistry, 2021)

Legend:
HeLa = assay: MTT cell viability assay, HeLa cervical adenocarcinoma cells; type: cell-based; conditions: Homo sapiens, 72 h
Procedure: (§1) The four human tumour cell lines MCF-7, HCT-116, HL-60 and HeLa used in this study were obtained from the VACSERA (Giza, Egypt) cell culture unit that were originally acquired from ATCC (Manassas, VA, USA). All the human tumour cell lines were cultured in Dulbecco’s Modified Eagle’s Medium (DMEM) with 10% foetal bovine serum, 2 mM L-glutamine and 100 µg/mL penicillin/streptomycin. Cells were maintained at 37 °C in 5% CO2 in a humidified incubator. All cells were sub-cultured 3 times/week by trypsinisation using TrypLE Express (1X).
(§2) The quinoline compounds were evaluated for antiproliferative effect using the MTT viability assay of four cancer cell lines (MCF-7, HCT-116, HL-60 and HeLa) and normal breast cells MCF-10A to calculate the relative IC50 values for each compound. Cells were seeded in triplicate in 96-well plates at a density of 10 × 10^3 cells/ml in a total volume of 200 µl per well. 0.1% of DMSO was used as a vehicle control. Following, the cells were treated with 2 µl test compound (from stock solutions in ethanol) to furnish the concentration range of study, 1 nM to 50 µM, and re-incubated for a further 72 h. The culture medium was then removed, and the cells washed with 100 µL phosphate buffered saline (PBS) and 50 µL MTT added, to reach a final concentration of 1 mg/mL. Cells were incubated for 2 h in darkness at 37 °C. Solubilisation was begun through the addition of […] DMSO, and the cells maintained at room temperature in darkness for 20 min to ensure thorough colour diffusion before reading the absorbance. Plates were incubated for 72 h at 37 °C + 5% CO2. The MTT (5 mg/mL in PBS) was added and incubated for another 4 h, and the optical density was detected with a microplate reader at 570 nm. Results were expressed as percentage viability relative to vehicle control (100%). Dose response curves were plotted and IC50 values (concentration of drug resulting in 50% reduction in cell survival) were obtained using the commercial software package Prism (GraphPad Software, Inc., La Jolla, CA, USA). All the experiments were repeated in at least three independent experiments.

HL-60 = assay: MTT cell viability assay, HL-60 leukaemia cells; type: cell-based; conditions: Homo sapiens, 72 h, read-out: IC50 value, HL-60
Procedure: as §1, §2

MCF-7 = assay: MTT cell viability assay, MCF-7 breast adenocarcinoma cells; type: cell-based; conditions: Homo sapiens, MCF7, 72 h, read-out: IC50 value, MCF-7
Procedure: as §1, §2

bovine brain tubulin = assay: Tubulin polymerisation assay; type: biochemical; conditions: for IC50: Tubulin was at 10 µM, read-out: Tubulin assembly IC50 (inhibition of tubulin polymerisation)
Procedure: The assembly of purified bovine tubulin was monitored using a kit, BK006, purchased from Cytoskeleton Inc., (Denver, CO, USA). The assay was carried out in accordance with the manufacturer’s instructions using the standard assay conditions. Briefly, purified ([…]) in a buffer consisting of 80 mM PIPES (pH 6.9), 0.5 mM EGTA, 2 mM MgCl2, 1 mM GTP and 10% glycerol was incubated at 37 °C in the presence of either vehicle (2% (v/v) ddH2O), CA-4, or the quinoline compounds. Light is scattered proportionally to the concentration of polymerised microtubules in the assay. Therefore, tubulin assembly was monitored turbidimetrically at 340 nm in a Spectramax 340 PC spectrophotometer (Molecular Devices, Sunnyvale, CA, USA). The concentration that inhibits tubulin polymerisation by 50% (IC50) was determined using area under the curve (AUC). The AUC of the untreated controls were considered as 100% polymerisation. The IC50 value for each compound was computed using GraphPad Prism Software.

HCT-116 = assay: MTT cell viability assay, HCT-116 colorectal carcinoma cells; type: cell-based; conditions: Homo sapiens, 72 h
Procedure: as §1, §2

[1] = tested on: MCF-7, HL-60, HCT-116 and HeLa; assay: MTT cell viability assay, statements over all four cancer cell lines; type: cell-based, human
Procedure: as §1, §2

COc1cc(C2=NC(=Cc3cc4ccccc4nc3OC)C(=O)O2)cc(OC)c1OC [Compound 12a, 4-[(2-Methoxyquinolin-3-yl)methylene]-2–(3,4,5-trimethoxyphenyl)oxazol-5(4H)-one]
IC50 (HeLa): 2110 ± 34 nM
IC50 (HL-60): 3309 ± 22 nM
IC50 (MCF-7): 1710 ± 40 nM
fold less active than CA-4 (tubulin assembly) (bovine brain tubulin): 6 fold
IC50 (bovine brain tubulin): 14000 nM
IC50 (HCT-116): 2010 ± 80 nM
melting point: 215 to 217 °C

COc1cc(C2=NC(=Cc3cc4cc(C)ccc4nc3OC)C(=O)O2)cc(OC)c1OC [Compound 12b, 4-[(2-Methoxy-6-methylquinolin-3-yl)methylene]-2–(3,4,5-trimethoxyphenyl) oxazol-5(4H)-one]
IC50 (HeLa): 117 ± 85 nM
IC50 (HL-60): 197 ± 41 nM
IC50 (MCF-7): 132 ± 13 nM
IC50 (HCT-116): 184 ± 7 nM
melting point: 218 to 220 °C

COc1cc(C2=NC(=Cc3cc4cccc(C)c4nc3OC)C(=O)O2)cc(OC)c1OC [Compound 12d, 4-[(2-Methoxy-8-methylquinolin-3-yl)methylene]-2–(3,4,5-trimethoxyphenyl) oxazol-5(4H)-one]
IC50 (HeLa): 153 ± 83 nM
IC50 (HL-60): 268 ± 93 nM
IC50 (MCF-7): 154 ± 71 nM
IC50 (HCT-116): 191 ± 1 nM
melting point: 236 to 238 °C

COc1ccc2nc(OC)c(/C=C3\N=C(c4cc(OC)c(OC)c(OC)c4)OC3=O)cc2c1 [Compound 12e]
IC50 (HeLa): 10 ± 4 nM
IC50 (HL-60): 68 ± 34 nM
IC50 (MCF-7): 56 ± 27 nM
IC50 (bovine brain tubulin): 2260 nM
IC50 (HCT-116): 31 ± 1 nM
melting point: 242 to 244 °C

COc1ccc2cc(C=C3N=C(c4cc(OC)c(OC)c(OC)c4)OC3=O)c(OC)nc2c1 [Compound 12f, 4-[(2,7-Dimethoxyquinolin-3-yl)methylene]-2–(3,4,5-trimethoxyphenyl)oxazol-5(4H)-one]
IC50 (HeLa): 138 ± 26 nM
IC50 (HL-60): 352 ± 21 nM
IC50 (MCF-7): 52 ± 2.1 nM
IC50 (HCT-116): 66 ± 5 nM
melting point: 221 to 223 °C

COc1cc(C2=NC(=Cc3cc4ccc(OC(C)C)cc4nc3OC)C(=O)O2)cc(OC)c1OC [Compound 12g, 4-[(7-Isopropoxy-2-methoxyquinolin-3-yl)methylene]-2–(3,4,5-trimethoxyphenyl)oxazol-5(4H)-one]
IC50 (HeLa): 1750 ± 500 nM
IC50 (HL-60): 1820 ± 640 nM
IC50 (MCF-7): 1510 ± 220 nM
fold less active than CA-4 (tubulin assembly) (bovine brain tubulin): 4 fold
IC50 (bovine brain tubulin): 8230 nM
IC50 (HCT-116): 7880 ± 300 nM
melting point: 227 to 229 °C

COc1cc(C2=NC(=Cc3cc4ccc(OCc5ccccc5)cc4nc3OC)C(=O)O2)cc(OC)c1OC [Compound 12h, 4-[(7-(Benzyloxy)-2-methoxyquinolin-3-yl)methylene]-2–(3,4,5-trimethoxyphenyl)oxazol-5(4H)-one]
IC50 (HeLa): 1050 ± 840 nM
IC50 (HL-60): 4660 ± 260 nM
IC50 (MCF-7): 1930 ± 612 nM
IC50 (HCT-116): 1560 ± 720 nM
melting point: 247 to 249 °C

COc1cc(C2=NC(=Cc3cc4ccccc4nc3OC)C(=O)N2)cc(OC)c1OC [Compound 13a, 5-[(2-Methoxyquinolin-3-yl)methylene]-2–(3,4,5-trimethoxyphenyl)-3,5-dihydro-4H-imidazol-4-one]
IC50 (HeLa): 1410 ± 96 nM
IC50 (HL-60): 1560 ± 55 nM
IC50 ([1]; Homo sapiens): > 1000 nM
IC50 (MCF-7): 1030 ± 55 nM
IC50 (HCT-116): 8210 ± 7.7 nM
melting point: 230 to 232 °C

COc1cc(C2=NC(=Cc3cc4cc(C)ccc4nc3OC)C(=O)N2)cc(OC)c1OC [Compound 13b, 5-[(2-Methoxy-6-methylquinolin-3-yl)methylene]-2–(3,4,5-trimethoxyphenyl)-3,5-dihydro-4H-imidazol-4-one]
IC50 (HeLa): 188 ± 13 nM
IC50 (HL-60): 240 ± 12 nM
IC50 over all four cancer cell lines [1]: submicromolar
IC50 (MCF-7): 63 ± 1.1 nM
IC50 (HCT-116): 173 ± 25 nM
melting point: 223 to 225 °C

COc1cc(C2=NC(=Cc3cc4ccc(C)cc4nc3OC)C(=O)N2)cc(OC)c1OC [Compound 13c, 5-[(2-Methoxy-7-methylquinolin-3-yl)methylene]-2–(3,4,5-trimethoxyphenyl)-3,5-dihydro-4H-imidazol-4-one]
IC50 (HeLa): 733 ± 91 nM
IC50 (HL-60): 661 ± 26 nM
IC50 over all four cancer cell lines [1]: submicromolar
IC50 (MCF-7): 223 ± 56 nM
fold less active than 12c (tubulin polymerisation) (bovine brain tubulin): 16 fold
IC50 (bovine brain tubulin): 20300 nM
IC50 (HCT-116): 284 ± 83 nM
melting point: 236 to 238 °C

COc1cc(C2=NC(=Cc3cc4cccc(C)c4nc3OC)C(=O)N2)cc(OC)c1OC [Compound 13d, 5-[(2-Methoxy-8-methylquinolin-3-yl)methylene]-2–(3,4,5-trimethoxyphenyl)-3,5-dihydro-4H-imidazol-4-one]
IC50 (HeLa): 126 ± 44 nM
IC50 (HL-60): 96 ± 6 nM
IC50 over all four cancer cell lines [1]: submicromolar
IC50 (MCF-7): 137 ± 23 nM
IC50 (HCT-116): 109 ± 11 nM
melting point: 233 to 235 °C

COc1ccc2nc(OC)c(C=C3N=C(c4cc(OC)c(OC)c(OC)c4)NC3=O)cc2c1 [Compound 13e, 5-[(2,6-Dimethoxyquinolin-3-yl)methylene]-2–(3,4,5-trimethoxyphenyl)-3,5-dihydro-4H-imidazol-4-one]
IC50 (HeLa): 62 ± 3 nM
IC50 (HL-60): 272 ± 50 nM
IC50 (MCF-7): 42 ± 2.5 nM
IC50 (bovine brain tubulin): 1480 nM
IC50 (HCT-116): 85 ± 3 nM
melting point: 253 to 255 °C

COc1ccc2cc(C=C3N=C(c4cc(OC)c(OC)c(OC)c4)NC3=O)c(OC)nc2c1 [Compound 13f, 5-[(2,7-Dimethoxyquinolin-3-yl)methylene]-2–(3,4,5-trimethoxyphenyl)-3,5-dihydro-4H-imidazol-4-one]
IC50 (HeLa): 101 ± 90 nM
IC50 (HL-60): 210 ± 98 nM
IC50 (MCF-7): 92 ± 6.2 nM
IC50 (HCT-116): 187 ± 9 nM
melting point: 241 to 243 °C

COc1cc(C2=NC(=Cc3cc4ccc(OC(C)C)cc4nc3OC)C(=O)N2)cc(OC)c1OC [Compound 13g, 5-((7-Isopropoxy-2-methoxyquinolin-3-yl)methylene)-2–(3,4,5-trimethoxyphenyl)-3,5-dihydro-4H-imidazol-4-one]
IC50 (HeLa): 4440 ± 600 nM
IC50 (HL-60): 5110 ± 410 nM
IC50 (MCF-7): 5560 ± 133 nM
IC50 (HCT-116): 1620 ± 950 nM
melting point: 238 to 240 °C

COc1cc(C2=NC(=Cc3cc4ccc(OCc5ccccc5)cc4nc3OC)C(=O)N2)cc(OC)c1OC [Compound 13h, 5-[(7-(Benzyloxy)-2-methoxyquinolin-3-yl)methylene]-2–(3,4,5-trimethoxyphenyl)-3,5-dihydro-4H-imidazol-4-one]
IC50 (HeLa): 2070 ± 390 nM
IC50 (HL-60): 4930 ± 260 nM
IC50 (MCF-7): 1700 ± 821 nM
IC50 (HCT-116): 2610 ± 430 nM
melting point: 259 to 261 °C
